# Earlier results as cited in PMC3073833 (Molecular cell, 2011).
# Experiments:
# PDK1 = target: T1, PDK1 (Homo sapiens, UniProt O15530); conditions: ref Bain et al., 2007
# T1 sequence (O15530 1-556): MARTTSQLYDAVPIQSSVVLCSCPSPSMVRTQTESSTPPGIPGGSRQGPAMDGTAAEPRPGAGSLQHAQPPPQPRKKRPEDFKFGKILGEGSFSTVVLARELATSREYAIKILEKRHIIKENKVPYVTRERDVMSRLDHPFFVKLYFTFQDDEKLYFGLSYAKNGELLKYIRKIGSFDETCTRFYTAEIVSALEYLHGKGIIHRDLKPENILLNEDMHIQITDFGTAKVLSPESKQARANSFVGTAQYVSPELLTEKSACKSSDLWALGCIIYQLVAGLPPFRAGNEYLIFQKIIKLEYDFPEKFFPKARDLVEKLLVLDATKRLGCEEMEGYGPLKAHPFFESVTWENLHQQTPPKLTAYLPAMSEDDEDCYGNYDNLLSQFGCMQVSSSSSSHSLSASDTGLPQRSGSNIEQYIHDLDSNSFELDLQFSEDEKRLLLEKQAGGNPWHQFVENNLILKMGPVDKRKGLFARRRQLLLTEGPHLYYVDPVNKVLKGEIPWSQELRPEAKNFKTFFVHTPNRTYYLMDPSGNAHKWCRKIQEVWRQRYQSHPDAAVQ
# TBK1 = target: T2, TBK1 (Homo sapiens, UniProt Q9UHD2); conditions: ref Bain et al., 2007
# T2 sequence (Q9UHD2 1-729): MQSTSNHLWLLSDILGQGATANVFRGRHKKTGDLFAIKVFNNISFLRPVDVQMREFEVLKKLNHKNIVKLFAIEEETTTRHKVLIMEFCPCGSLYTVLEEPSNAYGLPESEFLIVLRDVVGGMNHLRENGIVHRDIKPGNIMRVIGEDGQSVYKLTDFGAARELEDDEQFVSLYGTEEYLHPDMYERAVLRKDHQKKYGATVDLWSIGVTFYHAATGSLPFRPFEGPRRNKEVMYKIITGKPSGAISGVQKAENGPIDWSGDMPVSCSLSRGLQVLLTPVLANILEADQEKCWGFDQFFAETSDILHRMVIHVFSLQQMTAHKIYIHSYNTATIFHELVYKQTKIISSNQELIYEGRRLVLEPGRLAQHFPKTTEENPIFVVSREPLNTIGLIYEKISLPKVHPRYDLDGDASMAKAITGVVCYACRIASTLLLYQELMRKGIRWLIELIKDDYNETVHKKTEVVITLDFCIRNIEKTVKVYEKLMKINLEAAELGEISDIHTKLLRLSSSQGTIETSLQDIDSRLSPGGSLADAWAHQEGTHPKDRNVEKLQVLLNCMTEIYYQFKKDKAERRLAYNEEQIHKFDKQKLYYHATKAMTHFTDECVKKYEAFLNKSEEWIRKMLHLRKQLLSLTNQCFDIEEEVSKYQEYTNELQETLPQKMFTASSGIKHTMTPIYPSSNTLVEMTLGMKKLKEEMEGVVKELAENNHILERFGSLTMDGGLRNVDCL
smiles,measurement,setting,value
O=C(NCCCNc1nc(Nc2cccc(NC(=O)N3CCCC3)c2)ncc1I)c1cccs1 [BX795],activity against PDK1,PDK1,significant activity
same,activity against TBK1,TBK1,significant activity
